Experimental data reported in patent US20180071248A1, “COMPOSITION FOR IMPROVING CIRCADIAN RHYTHM” (SUNTORY HOLDINGS LIMITED, priority 2015, published 2018).

How the values were obtained:
circadian rhythm = conditions: disclosed in NPLs 4 and 5; cited from earlier work
[1] = test system: Per 2 gene expression rhythm; experiment: Per 2 gene expression rhythm in Per2::LUC knock-in mouse-derived embryonic fibroblast line (luciferase chemiluminescence, LumiCycle); assay type: cell-based; conditions: Per2::LUC mouse embryonic fibroblasts; each substance at 10 μM; FIG. 4
Protocol: The cell line used was Per2::LUC knock-in mouse-derived embryonic fibroblast line. Per2::LUC knock-in mouse is a mouse in which the luciferase gene serving as a reporter is introduced downstream of the promoter region of the clock gene Per 2. Therefore, a Per 2::LUC knock-in mouse-derived embryonic fibroblast line expresses the luciferase gene along with periodic expression of the clock gene. When Per 2::LUC knock-in mouse-derived embryonic fibroblasts are cultured in a culture medium containing luciferin, a luciferase substrate, the cells produce chemiluminescence periodically; thus, by monitoring the chemiluminescence, the expression rhythm of the clock gene Per 2 can be evaluated.
At first, about 5×10^5 cells of the Per2::LUC knock-in mouse-derived embryonic fibroblast line were seeded onto 35 mm culture dishes, and then treated with 200 nM dexamethasone for 2 hours to thereby reset (tune) the biorhythm of the cells. […] While the cell culture was continued, the chemiluminescence of the reporter gene was measured real-time with a luminometer (LumiCycle; produced by Actimetrics) for one minute at a frequency of every 10 minutes, and the measurement was continued for 5 days. Amplitude and period length were calculated from the obtained waveform to evaluate the effect of the test substance, a 1:1 mixture of sesamin/episesamin. […]

| SMILES | circadian rhythm amplitude (circadian rhythm) | circadian rhythm period (circadian rhythm) | amplitude of Per 2 gene expression [1] |
| --- | --- | --- | --- |
| Cn1c(=O)c2c(ncn2C)n(C)c1=O [caffeine] | amplify circadian rhythm amplitude | lengthen circadian rhythm period | – |
| c1cc2c(cc1[C@H]1OC[C@H]3[C@@H]1CO[C@@H]3c1ccc3c(c1)OCO3)OCO2 [sesamin] | – | – | capable of increasing the amplitude |
| Oc1cc2c(cc1[C@H]1OC[C@H]3[C@@H]1CO[C@@H]3c1ccc3c(c1)OCO3)OCO2 [sesaminol] | – | – | capable of increasing the amplitude |
